System: human platelets
Assay: Ex vivo platelet incubation and lipidomics
Format: cell-based
Details: human platelets + DHA, with inhibitor; data not shown

COc1cccc(CNc2ccc(S(=O)(=O)Nc3nc4ccccc4s3)cc2)c1O [ML355]
reduction of 14S-HDHA and 11S-HDHA production: approximately 70%
